We go through five molecules from patent US9938231B2, “Liquid arylbenzoyl benzoic acid ester derivatives for energy curable compositions” (SUN CHEMICAL CORPORATION, priority 2014, dated 2018).

Structures are written as SMILES.

What all share (type): physicochemical
Data set [1] can be described thus: Solubility stability of photoinitiator blends. Particulars: for Behaviour of the solution upon cooling to room temperature: 1:1 mixture with dimethylaminobenzoic acid ethylhexyl ester, dissolved at 50° C. As for the experimental part: A 1:1 mixture in weight of 4-phenylbenzoyl benzoic acid ethylhexyl ester and dimethylaminobenzoic acid ethylhexyl ester was transformed into a solution by stirring at room temperature. […] As a comparison experiment, a 1:1 mixture of 4-phenylbenzophenone and dimethylaminobenzoic acid ethylhexyl ester was turned into a solution at elevated temperature of 50° C.

The nature of data set [2]: Solubility in propoxylated pentaerythritol tetraacrylate SR 494 LM (PPTTA). The following applies: for Solubility in PPTTA: stirred 30 minutes at room temperature. As for the experimental part:
4-phenylbenzophenone, 4-phenylbenzoyl benzoic acid ethylhexyl ester, and 4-phenylbenzoyl benzoic acid amyl ester were each separately added to the multifunctional acrylate propoxylated pentaerythritol tetraacrylate (SR 494 LM, Sartomer company) (PPTTA) in amounts of 2, 4, 6, and 8 weight % and stirred for 30 minutes at room temperature.

The nature of data set [3]: Solubility in di-pentaerythritol hexaacrylate (DPHA). The following applies: for Solubility in DPHA: stirred 30 minutes at room temperature. The procedure: 4-phenylbenzophenone, 4-phenylbenzoyl benzoic acid ethylhexyl ester, and 4-phenylbenzoyl benzoic acid amyl ester were each added separately to the multifunctional acrylate di-pentaerythritol hexaacrylate (DPHA, Miwon Company) in amounts of 2, 4, 6, and 8 weight %, and stirred for 30 minutes at room temperature.

Data set [4] can be described thus: UV-spectra measurement (absorption maximum, molar extinction coefficient). Particulars: ethyl acetate; for Molar extinction coefficient: at absorption maximum. As for the experimental part:
Spectra were acquired using a Unicam UV-2 UV/VIS spectrophotometer. All absorption spectra were obtained using 1 cm cuvettes, scanning within the 200-800 nm range. Solutions were prepared in a 100 cm^3 volumetric flask, and if required, subsequently diluted so that a maximum absorbance of less than 2 was obtained. From the absorption the molar extinction coefficient e was calculated in liter·mol^−1·cm^−1.

The nature of data set [5]: Viscosity of the neat ester. Particulars: at 25° C.

Consider `COC(=O)c1ccccc1C(=O)c1ccc(-c2ccccc2)cc1` [4-phenylbenzoyl benzoic acid methyl ester], for which the “Behaviour of the solution upon cooling to room temperature” value in data set [1] was “instability and precipitation”.

For the molecule `O=C(c1ccccc1)c1ccc(-c2ccccc2)cc1` [Example 1, 4-phenyl benzophenone, reference compound], the “Solubility in PPTTA” value is “solution” in data set [2] (2 weight % in PPTTA), “hazy” in data set [2] (4 weight % in PPTTA), “Solid residuals” in data set [2] (6 weight % in PPTTA) and “Solid residuals” in data set [2] (8 weight % in PPTTA). Besides, the “Solubility in DPHA” value is “solution” in data set [3] (2 weight % in DPHA), “solution” in data set [3] (4 weight % in DPHA), “Hazy- opaque” in data set [3] (6 weight % in DPHA) and “Solid residuals” in data set [3] (8 weight % in DPHA). Further, the “Behaviour of the solution upon cooling to room temperature” value in data set [1] is on record as “precipitated”.

`CCCCC(CC)COC(=O)c1ccccc1C(=O)c1ccc(-c2ccccc2)cc1` (stereo not shown) [Example 9, 4-Phenylbenzoyl Benzoic Acid Ethyl Hexyl Ester] had a Molar extinction coefficient in data set [4] of 20100 liter · mol^−1 · cm · ^−1. Also, the Absorption maximum in data set [4] is 287 (ethyl acetate) nm. For the same molecule, the “UV-spectroscopy: λ max” value in data set [4] came out at 287 nm. Also, the “Solubility in PPTTA compared with 4-phenyl benzophenone” value in data set [2] was “better solubility than 4-phenyl benzophenone”. The “Solubility in PPTTA” value in data set [2] (2 weight % in PPTTA), in data set [2] (4 weight % in PPTTA), in data set [2] (6 weight % in PPTTA) and in data set [2] (8 weight % in PPTTA) was “solution” each time. The “Solubility in DPHA compared with 4-phenyl benzophenone” value in data set [3] was “better solubility than 4-phenyl benzophenone”. Besides, the “Solubility in DPHA” value in data set [3] (2 weight % in DPHA), in data set [3] (4 weight % in DPHA), in data set [3] (6 weight % in DPHA) and in data set [3] (8 weight % in DPHA) was “solution” in each case. The “State of the solution at 5° C.” value in data set [1] (1:1 mixture in weight with dimethylaminobenzoic acid ethylhexyl ester) is “stayed liquid”. This molecule showed a Viscosity in data set [5] of 12 Pa·s.

Take `CCCCCOC(=O)c1ccccc1C(=O)c1ccc(-c2ccccc2)cc1` [Example 10, 4-Phenylbenzoyl Benzoic Acid Amyl Ester]: in data set [4], the “UV-spectroscopy: λ max” value worked out at 286 nm. For the same molecule, in data set [2], the “Solubility in PPTTA compared with 4-phenyl benzophenone” value was “better solubility than 4-phenyl benzophenone”. The “Solubility in PPTTA” value in data set [2] (2 weight % in PPTTA), in data set [2] (4 weight % in PPTTA), in data set [2] (6 weight % in PPTTA) and in data set [2] (8 weight % in PPTTA) was “solution” throughout. Moreover, in data set [3], the “Solubility in DPHA compared with 4-phenyl benzophenone” value was “better solubility than 4-phenyl benzophenone”. Moreover, the “Solubility in DPHA” value in data set [3] (2 weight % in DPHA), in data set [3] (4 weight % in DPHA), in data set [3] (6 weight % in DPHA) and in data set [3] (8 weight % in DPHA) was “solution” in each case. In data set [5], this molecule yielded a Viscosity of 13 Pa·s.

Take `CCCCC(CC)COC(=O)c1ccccc1C(=O)c1ccc(-c2ccc(-c3ccccc3)cc2)cc1` (stereo not shown) [Example 12, 4-Terphenoyl Benzoic Acid Ethylhexyl Ester]: in data set [4], the Molar extinction coefficient is 24900 liter · mol^−1 · cm · ^−1, the Absorption maximum is listed as 309 (ethyl acetate) nm and the “UV-spectroscopy: λ max” value is listed as 309 nm.
